Assay results: patent US20240270821A1, “GIP/GLP1/GCG TRI-RECEPTOR AGONISTS AND USES THEREOF” (priority 2023, published 2024)
pEC50: −log10 of the molar value. Like-named read-outs stand apart in the source and are kept apart here. Starred links: 1 amine or outer side, 2 acyl side, 3 side chain; linkers in the order of their positions; H or OH if unused. Non-standard residues stand in square brackets, D forms with d. Groups on a side chain read outwards from the residue. No end group written: not given here. *: point of attachment. C20 diacid = O=C(O)CCCCCCCCCCCCCCCCCCC(=O)*; C18 diacid = O=C(O)CCCCCCCCCCCCCCCCC(=O)*; αMePhe(2-F) = C[C@](N)(Cc1ccccc1F)C(=O)O; γGlu = O=C(O)[C@H](CCC(=O)[*:2])N[*:1]; αMe4Pal = C[C@](N)(Cc1ccncc1)C(=O)O; αMeY = C[C@](N)(Cc1ccc(O)cc1)C(=O)O; 4Pal = N[C@@H](Cc1ccncc1)C(=O)O; Aad = N[C@@H](CCCC(=O)O)C(=O)O; αMeL = CC(C)C[C@](C)(N)C(=O)O; αMeS = C[C@](N)(CO)C(=O)O; Orn = NCCC[C@H](N)C(=O)O; AEEA = NCCOCCOCC(=O)O; Aib = CC(C)(N)C(=O)O

Experiments:
Assay type in all cases: cell-based
hGLP-1R [1] = target: T1, hGLP-1R (Homo sapiens, UniProt P43220); assay: Functional cAMP activation in the presence of 0.1% casein (no HSA); settings: read-out: Relative cAMP EC50, hGLP-1R;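 note: intracellular cAMP rise after 30 min at 37 °C read by HTRF, normalized between buffer only (0%) and maximal control ligand (100%), four-parameter variable-slope fit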
T1 sequence (P43220 24-463): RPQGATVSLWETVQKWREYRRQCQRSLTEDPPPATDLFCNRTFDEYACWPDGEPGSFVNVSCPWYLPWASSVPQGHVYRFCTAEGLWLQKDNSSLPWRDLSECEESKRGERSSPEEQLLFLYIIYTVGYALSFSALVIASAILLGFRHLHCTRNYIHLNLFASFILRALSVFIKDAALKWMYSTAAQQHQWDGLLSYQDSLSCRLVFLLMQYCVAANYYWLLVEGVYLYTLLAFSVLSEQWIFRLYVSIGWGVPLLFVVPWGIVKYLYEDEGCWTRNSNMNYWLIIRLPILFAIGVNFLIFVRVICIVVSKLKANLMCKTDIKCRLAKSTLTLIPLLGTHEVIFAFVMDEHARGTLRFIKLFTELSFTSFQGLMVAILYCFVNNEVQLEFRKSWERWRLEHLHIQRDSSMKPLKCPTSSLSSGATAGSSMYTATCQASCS

hGcgR = hGcgR (Homo sapiens, UniProt P47871); assay: as above; settings: read-out: Relative cAMP EC50, hGcgR;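 note: intracellular cAMP rise after 30 min at 37 °C, read by HTRF against a cAMP standard curve, scaled from buffer only (0%) to maximal control ligand response (100%)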
hGcgR, sequence (P47871 26-477): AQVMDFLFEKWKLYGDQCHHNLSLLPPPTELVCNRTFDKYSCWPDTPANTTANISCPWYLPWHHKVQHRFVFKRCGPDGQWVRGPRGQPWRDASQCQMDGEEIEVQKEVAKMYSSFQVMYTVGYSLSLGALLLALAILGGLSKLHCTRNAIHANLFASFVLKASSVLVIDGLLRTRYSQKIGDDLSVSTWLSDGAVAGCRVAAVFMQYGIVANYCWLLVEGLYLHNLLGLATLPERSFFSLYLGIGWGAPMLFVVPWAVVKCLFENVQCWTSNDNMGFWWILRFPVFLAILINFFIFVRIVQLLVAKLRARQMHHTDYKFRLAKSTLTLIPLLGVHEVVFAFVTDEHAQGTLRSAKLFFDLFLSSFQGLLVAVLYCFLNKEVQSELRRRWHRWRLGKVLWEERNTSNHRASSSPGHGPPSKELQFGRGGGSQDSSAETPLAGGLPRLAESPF

hGIPR [2] = target: T2, hGIPR (Homo sapiens, UniProt P48546); assay: Functional cAMP activity in the presence of 1% HSA; settings: read-out: cAMP Rel EC50, hGIPR
T2 sequence (P48546 22-466): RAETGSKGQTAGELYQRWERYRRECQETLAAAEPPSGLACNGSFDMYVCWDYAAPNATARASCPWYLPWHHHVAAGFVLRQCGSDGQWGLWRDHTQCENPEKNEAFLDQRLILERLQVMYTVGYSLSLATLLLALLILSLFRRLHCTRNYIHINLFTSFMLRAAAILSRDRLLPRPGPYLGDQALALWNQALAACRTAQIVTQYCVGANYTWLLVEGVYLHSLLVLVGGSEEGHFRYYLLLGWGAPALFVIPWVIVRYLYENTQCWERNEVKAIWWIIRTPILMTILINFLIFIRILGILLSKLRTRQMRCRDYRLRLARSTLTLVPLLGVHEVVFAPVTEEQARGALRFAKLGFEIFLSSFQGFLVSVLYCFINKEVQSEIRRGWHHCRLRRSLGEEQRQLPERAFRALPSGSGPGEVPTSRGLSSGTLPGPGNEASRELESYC

hGLP-1R [3] = target: T1, hGLP-1R; assay: Functional cAMP activity in the presence of 1% HSA; settings: read-out: cAMP Rel EC50, hGLP-1R
hGIPR [4] = target: T2, hGIPR; assay: Functional cAMP activation in the presence of 0.1% casein (no HSA); settings: read-out: Relative cAMP EC50, hGIPR;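 for Relative cAMP EC50, hGIPR: intracellular cAMP rise after 30 min at 37 °C read by HTRF against a standard curve, scaled between buffer alone (0%) and top control ligand concentration (100%), four-parameter fit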;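 for Relative cAMP EC50, hGcgR: intracellular cAMP rise after 30 min at 37 °C, read by HTRF against a cAMP standard curve, scaled from buffer only (0%) to maximal control ligand response (100%)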
human GcgR = human GcgR (Homo sapiens, UniProt P47871); assay: Functional cAMP activity in the presence of 1% HSA; settings: read-out: cAMP Rel EC50, hGcgR
human GcgR, sequence (P47871 26-477): as the sequence (P47871 26-477) above

[5] = in the presence of 0.1% casein (no HSA), geometric mean
[6] = in the presence of 0.1% casein (no HSA), geometric mean of relative EC50
[7] = HEK-293 clonal cell line, 1% HSA, geometric mean of relative EC50
[8] = 0.1% casein, no HSA, geometric mean

Substance | pEC50 (hGIPR [2]) | pEC50 (hGLP-1R [3]) | pEC50 (human GcgR) | pEC50 (hGLP-1R [1]) | pEC50 (hGcgR) | pEC50 (hGIPR [4]) | other results
Y[Aib]QGT[αMePhe(2-F)]TSDYSKLLDKIAQK([AEEA-γGlu-C20 diacid])AFIQYLIEGGPSSGEPPPSEG-NH2 [Example 338] | 7.96 | 6.76 | 6.18 | – | – | – | pEC50 (hGLP-1R [1]; [5]): 8.91; pEC50 (hGcgR; [5]): 8.40; pEC50 (hGIPR [4]; [5]): 10.13
Y[Aib]QGT[αMePhe(2-F)]TSD[4Pal]SILLDKK([γGlu-γGlu-C18 diacid])AQ[Aib]AFIEWLQEGGPSSGAPPPSGTEE-NH2 [Example 578] | 8.43 | 7.26 | 6.11 | 9.63 | 8.20 | 10.68 | –
Y[Aib]QGT[αMePhe(2-F)]TSD[4Pal]SILLDKK([γGlu-γGlu-C18 diacid])AQ[Aib]AFIEYLQEGGPSSGAPPPSGTEE-NH2 [Example 580] | 8.20 | 7.26 | 6.04 | 9.21 | 8.14 | 10.37 | –
Y[Aib]QGT[αMePhe(2-F)]TSD[4Pal]SILLDKK([γGlu-γGlu-C18 diacid])AQ[Aib]AFIEYL[Aad]EGGPSSGAPPPSGTGE-NH2 [Example 661] | 8.34 | 7.29 | 6.80 | 8.95 | 8.75 | 10.18 | –
Y[Aib]QGT[αMePhe(2-F)]TSD[4Pal]SI[αMeL]LD[Orn]K([AEEA-AEEA-γGlu-C18 diacid])AQ[αMe4Pal]EFI[dE][αMeY]LLEGGPSSGAPPPSGE-NH2 [Example 613] | 9.10 | 7.09 | 5.85 | 9.16 | 7.69 | 11.03 | –
Y[Aib]QGT[αMePhe(2-F)]TSD[4Pal]SI[αMeL]LD[Orn]K([AEEA-γGlu-C18 diacid])AQ[αMe4Pal]EFI[dE][αMeY]LIEGGPSSGAPPPSGE-NH2 [Example 614] | 9.22 | 7.48 | 6.14 | 9.60 | 8.20 | 11.19 | –
Y[Aib]QGT[αMePhe(2-F)]TSD[4Pal]SI[αMeL]LD[Orn]K([AEEA-γGlu-C18 diacid])AQ[αMe4Pal]EFI[dE][αMeY]LIEGGPSSGEPPPSGS-NH2 [Example 644] | 9.22 | 7.46 | 6.20 | 9.51 | 8.23 | 11.19 | –
Y[Aib]QGT[αMePhe(2-F)]TSD[4Pal]SI[αMeL]LD[Orn]K([AEEA-γGlu-C18 diacid])AQ[αMe4Pal][Orn]FI[dE][αMeY]LIEGGPSSGAPPPEGGGE-NH2 [Example 758] | 8.80 | 7.50 | 6.41 | 9.71 | 8.40 | 10.67 | –
Y[Aib]QGT[αMePhe(2-F)]TSD[4Pal]SI[αMeL]LD[Orn]K([AEEA-γGlu-C18 diacid])AQ[αMe4Pal][Orn]FI[dE][αMeY]LIEGGPSSGDPPPEAE-NH2 [Example 728] | 8.84 | 7.57 | 6.53 | 9.56 | 8.61 | 10.94 | –
Y[Aib]QGT[αMePhe(2-F)]TSD[4Pal]SI[αMeL]LD[Orn]K([AEEA-γGlu-C18 diacid])AQ[αMe4Pal][Orn]FI[dE][αMeY]LIEGGPSSGDPPPESE-NH2 [Example 729] | 8.84 | 7.57 | 6.56 | 9.54 | 8.68 | 10.95 | –
Y[Aib]QGT[αMePhe(2-F)]TSD[4Pal]SI[αMeL]LD[Orn]K([AEEA-γGlu-C18 diacid])AQ[αMe4Pal][Orn]FI[dE][αMeY]LIEGGPSSGEPPPEGEG[dE]-NH2 [Example 692] | – | – | – | – | – | – | pEC50 (hGLP-1R [1]; [6]): 9.60; pEC50 (hGcgR; [6]): 8.67; pEC50 (hGIPR [2]; [7]): 8.90; pEC50 (hGLP-1R [3]; [7]): 7.60; pEC50 (hGIPR [4]; [6]): 10.97; pEC50 (human GcgR; [7]): 6.42
Y[Aib]QGT[αMePhe(2-F)]TSD[4Pal]SI[αMeL]LD[Orn]K([AEEA-γGlu-C18 diacid])AQ[αMe4Pal][Orn]FI[dE][αMeY]LIEGGPSSGEPPPEGGGE-NH2 [Example 757] | 8.74 | 7.51 | 6.51 | 9.63 | 8.63 | 11.02 | –
Y[Aib]QGT[αMePhe(2-F)]TSD[4Pal]SI[αMeL]LD[Orn]K([AEEA-γGlu-C18 diacid])AQ[αMe4Pal][Orn]FI[dE][αMeY]LIEGGPSSGEPPPEGTE-NH2 [Example 679] | 8.99 | 7.67 | 6.73 | 9.59 | 8.49 | 10.91 | –
Y[Aib]QGT[αMePhe(2-F)]TSD[4Pal]SI[αMeL]LD[Orn]K([AEEA-γGlu-C18 diacid])AQ[αMe4Pal][Orn]FI[dE][αMeY]LIEGGPSSGEPPPEGT[dE]-NH2 [Example 691] | 8.93 | 7.54 | 6.51 | 9.59 | 8.61 | 10.93 | –
Y[Aib]QGT[αMePhe(2-F)]TSD[4Pal]SI[αMeL]LD[Orn]QAQ[αMe4Pal][Orn]FI[dE][αMeY]LIEGGPSSGEPPPETE-NH2 [Example 1230] | 10.82 | 8.94 | 7.16 | – | – | – | pEC50 (hGLP-1R [1]; [8]): 8.92; pEC50 (hGcgR; [8]): 7.19; pEC50 (hGIPR [4]; [8]): 10.66
Y[Aib]QGT[αMePhe(2-F)]TSD[4Pal][αMeS]ILLD[Orn]K([γGlu-γGlu-C18 diacid])AQ[Aib][Orn]FI[dE]YLIEGGPSSGEPPPEGEEE-NH2 [Example 606] | 8.24 | 7.27 | 6.32 | 9.10 | 8.30 | 9.77 | –
Y[Aib]QGT[αMePhe(2-F)]TSD[4Pal][αMeS]ILLD[Orn]K([γGlu-γGlu-C18 diacid])AQ[Aib][Orn]FI[dE]YLIEGGPSSGEPPPEGGEE-NH2 [Example 605] | 8.17 | 7.25 | 6.45 | 9.10 | 8.26 | 9.88 | –
Y[Aib]QGT[αMePhe(2-F)]TSD[4Pal][αMeS]ILLD[Orn]K([γGlu-γGlu-C18 diacid])AQ[Aib][Orn]FI[dE]YLIEGGPSSGEPPPSETE-NH2 [Example 555] | – | – | – | – | – | – | pEC50 (hGLP-1R [1]; [6]): 9.35; pEC50 (hGcgR; [6]): 8.45; pEC50 (hGIPR [2]; [7]): 8.27; pEC50 (hGLP-1R [3]; [7]): 7.38; pEC50 (hGIPR [4]; [6]): 10.22; pEC50 (human GcgR; [7]): 6.56
Y[Aib]QGT[αMePhe(2-F)]TSD[4Pal][αMeS]ILLD[Orn]K([γGlu-γGlu-C18 diacid])AQ[Aib][Orn]FI[dE][αMeY]LQEGGPSSGEPPPEGAE-NH2 [Example 546] | 7.92 | 7.46 | 6.65 | 9.29 | 8.44 | 9.60 | –
Y[Aib]QGT[αMePhe(2-F)]TSD[4Pal][αMeS]I[αMeL]LD[Orn]K([AEEA-γGlu-C18 diacid])AA[Aib]EFI[dE][αMeY]LIEGGPSSGAPPPSGE-NH2 [Example 701] | 9.01 | 7.60 | 6.65 | 9.66 | 8.83 | 11.00 | –
Y[Aib]QGT[αMePhe(2-F)]TSD[4Pal][αMeS]I[αMeL]LD[Orn]K([AEEA-γGlu-C18 diacid])AA[Aib]EFI[dE][αMeY]LIEGGPSSGAPPPSGGGE-NH2 [Example 745] | 8.87 | 7.54 | 6.58 | 9.67 | 8.73 | 10.92 | –
